Tests used:
[1] = Stability in normal mouse serum at 37 °C, radio-TLC (Experimental Example 2); assay type: in vitro ADME
[2] = Biodistribution in ICR mice after intravenous injection, gamma counter (Experimental Example 3); assay type: in vivo; settings: ICR male mice, i.v., 1 μCi/100 μL per mouse

- decrease of radiochemical purity in mouse serum ([1]; after 5 h): 거의 감소하지 않고
- remaining at 5 h ([1]; after 5 h, read-out: radiochemical purity in mouse serum): ≥ 95%
- remaining at 24 h ([1]; after 24 h, read-out: radiochemical purity in mouse serum): ≥ 90%
- time to absorption and accumulation in liver and kidney [2]: ≤ 15 min
- tissue uptake at 1 h ([2]; liver and kidney, iv, 1 uCi/animal, within 1 h, read-out: concentration (liver and kidney)): ≤ 20 %ID/g
- tissue uptake at 2 h ([2]; liver and kidney, iv, 1 uCi/animal, within 2 h, read-out: concentration (liver and kidney)): ≤ 10 %ID/g
- accumulation in liver and kidney ([2]; within 15 min): 높은 농도로 집적
- excretion from the body ([2]; within 2 h): ≥ 90%
SMILES: [N-]=[N+]=NCCOCCOCCOCCNC(=O)c1ccc([125I])cc1 [실시예 1, 125I이 표지된 N-(2-(2-(2-(2-아지도에톡시)에톡시)에톡시)에틸)-4-아이오도벤즈아마이드]

Source: patent publication KR20170031305A, “방사성 요오드 표지 아자이드 추적체, 이의 제조방법 및 이를 유효성분으로 포함하는 방사성 요오드 표지 또는 의료 진단용 조성물” (한국원자력연구원, priority 2015, dated 2017)
